According to PMC4579270, “Identification and Characterization of an Irreversible Inhibitor of CDK2” (Chemistry & Biology, 2015):
Like-named read-outs stand apart in the source and are kept apart here.

Experiments:
Assay in all cases: Dundee kinase screen re-test (standard format and 4 hour pre-incubation)
Format in all cases: biochemical
Aurora A = biological target: T1, Aurora A (Homo sapiens, UniProt O14965)
T1 sequence (O14965 1-403): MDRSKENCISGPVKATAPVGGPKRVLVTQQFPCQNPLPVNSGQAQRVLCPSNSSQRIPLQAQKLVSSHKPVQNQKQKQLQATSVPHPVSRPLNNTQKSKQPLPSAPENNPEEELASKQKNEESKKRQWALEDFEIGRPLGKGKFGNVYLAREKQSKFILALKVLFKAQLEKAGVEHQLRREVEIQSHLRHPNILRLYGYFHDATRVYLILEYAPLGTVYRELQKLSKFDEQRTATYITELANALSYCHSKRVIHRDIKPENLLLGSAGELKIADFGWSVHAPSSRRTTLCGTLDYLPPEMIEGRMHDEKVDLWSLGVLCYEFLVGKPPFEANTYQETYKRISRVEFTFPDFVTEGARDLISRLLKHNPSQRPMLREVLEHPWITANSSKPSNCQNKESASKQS
Protocol: (§1) Prior to determining its cellular activity, we carried out a screen to assess its selectivity against a panel of 131 protein kinases under conditions that would not distinguish between a reversible or irreversible mode of action. […] These 13 kinases and 29 additional kinases, selected for their known sensitivity to other inhibitors within the purine series, were then tested in a modified screening format in which the assay was repeated following a 4-hr pre-incubation (Table S3B). […] However, conformational flexibility around the active site may promote such an interaction with a residue from another part of the structure ([Martin et al., 2012]).
(§2) Table S3, Related to Figure 4. NCL-0006300 protein kinase selectivity. (A) NU6300 was tested at a single concentration of 1µM against 131 protein kinases present in a Dundee protein kinase screen (Bain et al., 2007). Values given are % activity remaining and are the average of duplicate measurements: 0-25% (red), 26-50% (yellow), 51-80% (black) and above 81% (green). The kinase domain sequences (as defined by UniProt) of […]
(§3) have a lysine residue at a position close to CDK2 Lys88 or Lys89. However, in the structure of tyrosine-protein kinase BTK (PDB ID: 3GEN) the residue equivalent to CDK2 Asp86 is Cys481 and therefore there is the potential for a covalent adduct to be formed through this side chain. Ephrin type-B receptor 3 (UniProt entry P54753) also encodes a cysteine residue (Cys717) that by sequence alignment would be predicted to be close to the CDK2 lysine pair. (B) Selected kinases were re-tested in the Dundee kinase screen against NU6300 at a single concentration of 0.5 µM both in the standard assay format and following a 4 hour pre-incubation in the presence of NU6300. Kinases which have very low activity after the 4 hour incubation so that results might not be wholly reliable are boxed in salmon. Kinases where the activity after a 4 hour pre-incubation is < 50% that in the standard assay format are highlighted in red.

MST2 = biological target: T2, MST2 (Homo sapiens, UniProt Q13188); details: for remaining activity at 0.5 µM: MST2, 0.5µM
T2 sequence (Q13188 1-491): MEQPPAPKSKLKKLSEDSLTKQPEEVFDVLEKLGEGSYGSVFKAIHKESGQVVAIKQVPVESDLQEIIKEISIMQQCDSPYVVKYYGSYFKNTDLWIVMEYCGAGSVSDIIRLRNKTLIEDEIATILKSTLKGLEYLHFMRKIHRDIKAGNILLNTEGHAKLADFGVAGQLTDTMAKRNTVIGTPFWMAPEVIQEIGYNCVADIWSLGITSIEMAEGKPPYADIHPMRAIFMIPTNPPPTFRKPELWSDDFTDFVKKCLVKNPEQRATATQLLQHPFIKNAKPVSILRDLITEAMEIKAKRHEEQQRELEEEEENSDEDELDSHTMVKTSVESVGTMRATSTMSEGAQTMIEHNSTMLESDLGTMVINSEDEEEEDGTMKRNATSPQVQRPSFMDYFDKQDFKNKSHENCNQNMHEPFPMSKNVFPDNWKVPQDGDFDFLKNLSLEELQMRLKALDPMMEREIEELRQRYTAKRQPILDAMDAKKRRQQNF
Protocol: as §1, §2, §3

PAK5 = PAK5 (Homo sapiens, UniProt Q9P286); details: PAK5, 0.5µM
Sequence of PAK5 (Q9P286 whole entry): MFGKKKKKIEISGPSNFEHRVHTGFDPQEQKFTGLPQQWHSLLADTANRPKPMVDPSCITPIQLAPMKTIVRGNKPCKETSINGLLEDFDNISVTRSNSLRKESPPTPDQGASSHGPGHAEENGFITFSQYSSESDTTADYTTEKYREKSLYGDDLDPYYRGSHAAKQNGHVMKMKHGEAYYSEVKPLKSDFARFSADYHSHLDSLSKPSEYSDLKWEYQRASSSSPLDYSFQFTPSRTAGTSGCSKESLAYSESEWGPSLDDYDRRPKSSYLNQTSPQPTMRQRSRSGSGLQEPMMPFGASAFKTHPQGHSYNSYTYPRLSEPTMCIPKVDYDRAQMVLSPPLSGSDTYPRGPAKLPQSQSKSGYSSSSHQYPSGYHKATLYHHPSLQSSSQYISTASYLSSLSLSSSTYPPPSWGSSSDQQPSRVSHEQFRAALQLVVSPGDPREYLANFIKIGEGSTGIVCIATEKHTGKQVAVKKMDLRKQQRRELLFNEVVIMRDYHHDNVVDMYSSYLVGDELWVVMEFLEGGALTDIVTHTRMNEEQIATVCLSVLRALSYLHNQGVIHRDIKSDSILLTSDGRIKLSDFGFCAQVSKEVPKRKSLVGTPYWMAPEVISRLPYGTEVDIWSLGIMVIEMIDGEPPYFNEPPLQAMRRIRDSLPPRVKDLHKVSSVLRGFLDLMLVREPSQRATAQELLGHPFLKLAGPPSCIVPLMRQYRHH
Protocol: as §1, §2, §3

PRK2 = PRK2 (Homo sapiens, UniProt Q16513); details: PRK2, 0.5µM
Protocol: as §1, §2, §3

ROCK 2 = ROCK 2 (Homo sapiens, UniProt O75116); details: ROCK 2, 0.5µM
Sequence of ROCK 2 (O75116 whole entry): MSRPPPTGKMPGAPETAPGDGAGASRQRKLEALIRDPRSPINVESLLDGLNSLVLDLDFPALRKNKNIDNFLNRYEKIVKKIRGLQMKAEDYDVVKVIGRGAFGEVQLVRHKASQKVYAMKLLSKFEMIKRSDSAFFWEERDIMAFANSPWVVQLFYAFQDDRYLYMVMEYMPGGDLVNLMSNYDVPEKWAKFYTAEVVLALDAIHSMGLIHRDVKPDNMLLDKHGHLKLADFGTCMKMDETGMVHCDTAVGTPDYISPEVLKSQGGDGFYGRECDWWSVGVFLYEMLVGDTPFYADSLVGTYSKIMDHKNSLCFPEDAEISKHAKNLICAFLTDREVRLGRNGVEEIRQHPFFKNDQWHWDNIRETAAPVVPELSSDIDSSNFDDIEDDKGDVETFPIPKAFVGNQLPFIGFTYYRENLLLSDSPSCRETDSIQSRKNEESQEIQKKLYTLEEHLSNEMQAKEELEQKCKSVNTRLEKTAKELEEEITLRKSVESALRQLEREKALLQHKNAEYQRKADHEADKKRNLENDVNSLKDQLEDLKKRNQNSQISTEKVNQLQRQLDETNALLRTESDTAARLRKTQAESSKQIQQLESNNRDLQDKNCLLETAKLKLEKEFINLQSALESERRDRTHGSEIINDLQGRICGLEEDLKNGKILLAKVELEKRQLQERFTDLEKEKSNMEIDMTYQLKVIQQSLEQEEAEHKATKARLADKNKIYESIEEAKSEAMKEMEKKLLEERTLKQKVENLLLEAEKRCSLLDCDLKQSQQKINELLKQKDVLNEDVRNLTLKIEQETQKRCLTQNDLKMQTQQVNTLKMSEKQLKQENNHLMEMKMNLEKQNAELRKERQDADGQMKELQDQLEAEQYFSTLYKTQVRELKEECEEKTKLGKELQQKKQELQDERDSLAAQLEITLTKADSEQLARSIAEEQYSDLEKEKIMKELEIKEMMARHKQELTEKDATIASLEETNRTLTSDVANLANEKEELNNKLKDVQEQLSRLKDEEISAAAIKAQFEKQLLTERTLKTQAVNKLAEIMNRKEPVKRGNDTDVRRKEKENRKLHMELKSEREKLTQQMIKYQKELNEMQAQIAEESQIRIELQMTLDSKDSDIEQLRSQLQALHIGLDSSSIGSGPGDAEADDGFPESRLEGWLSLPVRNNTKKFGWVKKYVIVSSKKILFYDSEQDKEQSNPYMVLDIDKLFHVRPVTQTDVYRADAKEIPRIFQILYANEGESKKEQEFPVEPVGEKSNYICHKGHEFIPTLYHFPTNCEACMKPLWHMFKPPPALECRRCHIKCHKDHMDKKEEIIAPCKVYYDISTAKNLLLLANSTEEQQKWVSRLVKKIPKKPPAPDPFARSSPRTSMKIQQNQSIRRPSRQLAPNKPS
Protocol: as §1
(§4) Table S3, Related to Figure 4. NCL-0006300 protein kinase selectivity. […]
(§5) Dundee protein kinase screen (Bain et al., 2007). Values given are % activity remaining and are the average of duplicate measurements: 0-25% (red), 26-50% (yellow), 51-80% […]
(§6) (black) and above 81% (green). […]
(§7) (B) Selected kinases were re-tested in the Dundee kinase screen against NU6300 at a single concentration of 0.5 µM both in the standard assay format and following a 4 hour pre-incubation in the presence of NU6300. Kinases which have very low activity after the 4 hour incubation so that results might not be wholly reliable are boxed in salmon. Kinases where the activity after a 4 hour pre-incubation is < 50% that in the standard assay format are highlighted in red.

RSK1 = RSK1 (Homo sapiens, UniProt Q15418); details: RSK1, 0.5µM
Sequence of RSK1 (Q15418 whole entry): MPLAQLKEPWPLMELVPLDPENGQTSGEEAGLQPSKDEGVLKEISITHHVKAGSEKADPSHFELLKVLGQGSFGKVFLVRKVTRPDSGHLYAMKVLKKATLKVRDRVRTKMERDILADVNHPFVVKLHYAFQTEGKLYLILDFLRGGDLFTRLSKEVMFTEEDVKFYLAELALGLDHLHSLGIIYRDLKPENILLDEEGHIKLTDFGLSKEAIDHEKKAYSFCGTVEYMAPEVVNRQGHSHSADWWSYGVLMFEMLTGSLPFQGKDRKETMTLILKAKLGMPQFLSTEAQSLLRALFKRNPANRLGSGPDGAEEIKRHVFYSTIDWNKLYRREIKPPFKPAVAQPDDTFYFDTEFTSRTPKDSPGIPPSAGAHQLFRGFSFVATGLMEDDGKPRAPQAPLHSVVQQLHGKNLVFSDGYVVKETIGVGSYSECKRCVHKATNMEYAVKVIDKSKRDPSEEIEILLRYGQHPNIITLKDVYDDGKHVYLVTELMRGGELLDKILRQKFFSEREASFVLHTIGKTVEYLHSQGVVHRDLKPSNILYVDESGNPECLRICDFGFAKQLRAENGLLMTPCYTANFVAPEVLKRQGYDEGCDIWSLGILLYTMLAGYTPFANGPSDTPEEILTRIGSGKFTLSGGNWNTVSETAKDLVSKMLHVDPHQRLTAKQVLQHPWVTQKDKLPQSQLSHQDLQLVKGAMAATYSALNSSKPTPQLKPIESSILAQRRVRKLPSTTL
Protocol: as §1, §4, §5, §6, §7

SIK2 = SIK2 (Homo sapiens, UniProt Q9H0K1); details: SIK2, 0.5µM
Sequence of SIK2 (Q9H0K1 whole entry): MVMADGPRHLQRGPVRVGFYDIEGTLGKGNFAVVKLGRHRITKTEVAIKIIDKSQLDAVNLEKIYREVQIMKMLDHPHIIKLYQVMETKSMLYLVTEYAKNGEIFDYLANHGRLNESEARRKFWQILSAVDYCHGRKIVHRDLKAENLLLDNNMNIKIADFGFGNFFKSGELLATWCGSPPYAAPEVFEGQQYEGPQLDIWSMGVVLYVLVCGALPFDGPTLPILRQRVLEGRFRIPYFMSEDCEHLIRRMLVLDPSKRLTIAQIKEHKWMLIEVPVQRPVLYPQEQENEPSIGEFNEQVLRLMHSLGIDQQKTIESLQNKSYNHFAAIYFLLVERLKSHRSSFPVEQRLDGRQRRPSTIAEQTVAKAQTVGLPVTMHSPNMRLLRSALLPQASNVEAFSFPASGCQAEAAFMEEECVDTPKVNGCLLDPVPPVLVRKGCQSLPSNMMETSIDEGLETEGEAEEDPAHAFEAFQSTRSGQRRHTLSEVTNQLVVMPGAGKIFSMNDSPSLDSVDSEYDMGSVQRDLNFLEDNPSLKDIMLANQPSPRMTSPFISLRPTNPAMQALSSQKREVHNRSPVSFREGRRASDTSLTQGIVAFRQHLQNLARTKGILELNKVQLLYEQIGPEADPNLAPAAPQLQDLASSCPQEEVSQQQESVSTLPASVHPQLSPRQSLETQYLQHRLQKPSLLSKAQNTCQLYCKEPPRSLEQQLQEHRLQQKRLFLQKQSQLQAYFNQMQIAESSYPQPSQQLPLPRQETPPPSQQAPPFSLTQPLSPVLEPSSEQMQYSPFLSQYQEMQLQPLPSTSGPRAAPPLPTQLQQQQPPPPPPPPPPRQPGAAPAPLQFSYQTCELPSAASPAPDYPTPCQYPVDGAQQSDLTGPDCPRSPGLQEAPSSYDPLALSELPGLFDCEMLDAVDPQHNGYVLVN
Protocol: as §1, §4, §5, §6, §7

Src = Src (Homo sapiens, UniProt P12931)
Sequence of Src (P12931 whole entry): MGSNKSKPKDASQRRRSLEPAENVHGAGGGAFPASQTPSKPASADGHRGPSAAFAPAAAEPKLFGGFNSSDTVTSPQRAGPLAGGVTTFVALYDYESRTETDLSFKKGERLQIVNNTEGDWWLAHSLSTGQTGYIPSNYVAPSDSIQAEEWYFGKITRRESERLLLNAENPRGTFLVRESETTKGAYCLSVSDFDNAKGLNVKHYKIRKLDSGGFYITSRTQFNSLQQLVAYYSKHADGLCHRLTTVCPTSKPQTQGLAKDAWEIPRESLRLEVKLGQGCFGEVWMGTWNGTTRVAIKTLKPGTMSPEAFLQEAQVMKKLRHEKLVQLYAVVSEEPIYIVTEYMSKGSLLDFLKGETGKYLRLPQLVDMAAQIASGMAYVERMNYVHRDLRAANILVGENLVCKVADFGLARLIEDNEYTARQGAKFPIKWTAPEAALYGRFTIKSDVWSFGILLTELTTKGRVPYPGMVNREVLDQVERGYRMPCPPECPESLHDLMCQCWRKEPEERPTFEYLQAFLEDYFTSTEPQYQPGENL
Protocol: as §1, §4, §5, §6, §7

[1] = 4hr RT preincubation, read-out: %Remaining activity at 0.5µM NU6300 - 4hr RT preincubation
[2] = usual format, read-out: %Remaining activity at 0.5µM NU6300 - Usual assay format

## C=CS(=O)(=O)c1ccc(Nc2nc(OCC3CCCCC3)c3nc[nH]c3n2)cc1 [NU6300, 6-(cyclohexylmethoxy)-N-(4-(vinylsulfonyl)phenyl)-9H-purin-2-amine]
Aurora A; [1]
  remaining activity at 0.5 µM: 6%
Aurora A; [2]
  remaining activity at 0.5 µM: 26%
Aurora A; 4-hr pre-incubation vs usual format, 0.5 µM
  additional loss of activity after pre-incubation: > 50%
MST2; [1]
  remaining activity at 0.5 µM: 11%
MST2; [2]
  remaining activity at 0.5 µM: 38%
MST2; Mst2, 4-hr pre-incubation vs usual format, 0.5 µM
  additional loss of activity after pre-incubation: > 50%
PAK5; [1]
  remaining activity at 0.5 µM: 53%
PAK5; [2]
  remaining activity at 0.5 µM: 76%
PRK2; [1]
  remaining activity at 0.5 µM: 84%
PRK2; [2]
  remaining activity at 0.5 µM: 65%
ROCK 2; [1]
  remaining activity at 0.5 µM: 47%
ROCK 2; [2]
  remaining activity at 0.5 µM: 46%
RSK1; [1]
  remaining activity at 0.5 µM: 131%
RSK1; [2]
  remaining activity at 0.5 µM: 83%
SIK2; [1]
  remaining activity at 0.5 µM: 69%
SIK2; [2]
  remaining activity at 0.5 µM: 39%
Src; [1]
  remaining activity at 0.5 µM: 54%
Src; [2]
  remaining activity at 0.5 µM: 48%
